Test results: publication PMC5527309, “Curative Treatment of Severe Gram-Negative Bacterial Infections by a New Class of Antibiotics Targeting LpxC” (mBio, 2017)
Values after ≈ are worked out from the molar mass of the structure shown. Where two headings read alike, the source gives them in different places.

Experiments:
E. coli = experiment: microbe, parasite or virus in culture; assay type: cell-based, Escherichia coli; settings: for MIC: read-out: MIC against E. coli
Y. pestis CO92 = assay type: cell-based, Yersinia pestis
Y. pestis [1] = settings: mouse, in vivo
[2] = Microsomal stability analysis; settings: mouse, liver microsomes, pH 7.4
OF-1 female mice = experiment: Tolerability study, 5-day intravenous regimen; settings: mouse
[3] = In vivo pharmacokinetics, single intravenous dose; settings: for half-life: female, OF-1, mouse, plasma, iv
K. pneumoniae = experiment: microbe, parasite or virus in culture; assay type: cell-based, Klebsiella pneumoniae
Enterobacter spp. = experiment: microbe, parasite or virus in culture; assay type: cell-based
P. mirabilis = experiment: microbe, parasite or virus in culture; assay type: cell-based, Proteus mirabilis
C. koseri = experiment: microbe, parasite or virus in culture; assay type: cell-based, Citrobacter koseri
C. freundii = experiment: microbe, parasite or virus in culture; assay type: cell-based, Citrobacter freundii
S. marcescens = experiment: microbe, parasite or virus in culture; assay type: cell-based, Serratia marcescens
M. morganii = experiment: microbe, parasite or virus in culture; assay type: cell-based, Morganella morganii
Yersinia spp. = experiment: microbe, parasite or virus in culture; assay type: cell-based, Y. enterocolitica and Y. pseudotuberculosis
Shigella spp. = experiment: microbe, parasite or virus in culture; assay type: cell-based
Salmonella spp = experiment: microbe, parasite or virus in culture; assay type: cell-based, Salmonella enterica
P. aeruginosa = experiment: microbe, parasite or virus in culture; assay type: cell-based, Pseudomonas aeruginosa
A. baumannii = experiment: microbe, parasite or virus in culture; assay type: cell-based, Acinetobacter baumannii
Enterobacteriaceae = experiment: organism not typed; assay type: cell-based
Y. pestis [4] = settings: cited from earlier work

For CC(O)(C(F)F)C(NC(=O)c1ccc(C#CC#Cc2ccc(N)cc2)cc1)C(=O)NO (stereo not shown) [LPC-058], the MIC (E. coli; Escherichia coli) was 0.025 µg/mL (≈ 0.0585 µM), the “type of antibacterial effect (kill curve)” value (Y. pestis CO92) was “bacteriostatic effect” and the “colonization of the lymph nodes, spleen, and blood relative to nontreated controls” value (Y. pestis [1]; iv, 10 mg/kg) was “significantly (P < 0.02) lower colonization”. The survival rate (Y. pestis [1]; iv, 10 mg/kg) was at least 80%, the half-life at 1 µM [2] was 95 min and the microsomal CLint at 1 µM [2] was 24 µL/min/mg. For the same compound, the “renal function (blood urea nitrogen) and hepatic function” value (OF-1 female mice; 10 mg/kg q8h, 5 days) was “normal”, the tissue damage (OF-1 female mice; 10 mg/kg q8h, 5 days) was “no tissue damage was detected” and the “histology (hematoxylin-eosin, 5-µm sections)” value (OF-1 female mice; 40 mg/kg q12h, 5 days) was “accumulation of polymorphonuclear cells in the lung and large intestine”. The “liver toxicity (blood alanine aminotransferase level)” value (OF-1 female mice; 40 mg/kg q12h, 5 days) was “liver toxicity”, the “plasma protein levels at the end of the 5-day regimen” value (OF-1 female mice; 5-day regimen) was “Low plasma protein levels” and the “appearance of diarrhea after the first injection” value (OF-1 female mice; 5-day regimen, regardless of regimen (10 mg/kg q8h, 20 mg/kg q12h, 40 mg/kg q12h)) was 3 days. For the same compound, the “AUC greater than AUC of LPC-069” value ([3]; LPC-058 single dose 20 mg/kg versus LPC-069 single dose 40 mg/kg, mouse) was “approximately 10 fold”, the half-life ([3]; 20 mg/kg) was 53 min and the tissue distribution volume ([3]; mouse, single intravenous dose of 20 mg/kg) was 1.1 L/kg.

With CC(O)(C(F)F)C(NC(=O)c1ccc(C#Cc2ccc(CN3CCOCC3)cc2)cc1)C(=O)NO (stereo not shown) [LPC-069] the “MIC Range” value (E. coli) was 0.05 to 0.4 mg/L, the MIC50 (E. coli; Escherichia coli) was 0.1 µg/mL (≈ 0.205 µM) and the MIC90 (E. coli; Escherichia coli) was 0.2 µg/mL (≈ 0.41 µM). For the same compound, the MIC (E. coli; Escherichia coli) was 0.1 µg/mL (≈ 0.205 µM), the “MIC Range” value (K. pneumoniae) was 0.2 to 0.8 mg/L and the MIC50 (K. pneumoniae; Klebsiella pneumoniae) was 0.4 µg/mL (≈ 0.821 µM). For the same compound, the MIC90 (K. pneumoniae; Klebsiella pneumoniae) was 0.8 µg/mL (≈ 1.64 µM), the “MIC Range” value (Enterobacter spp.) was 0.1 to 1.6 mg/L and the MIC50 (Enterobacter spp.; Enterobacter) was 0.2 µg/mL (≈ 0.41 µM). For the same compound, the MIC90 (Enterobacter spp.; Enterobacter) was 0.4 µg/mL (≈ 0.821 µM), the “MIC Range” value (P. mirabilis) was 0.2 to 0.8 mg/L and the MIC50 (P. mirabilis; Proteus mirabilis) was 0.2 µg/mL (≈ 0.41 µM). For the same compound, the MIC90 (P. mirabilis; Proteus mirabilis) was 0.4 µg/mL (≈ 0.821 µM), the “MIC Range” value (C. koseri) was 0.1 to 1.6 mg/L and the MIC50 (C. koseri; Citrobacter koseri) was 0.4 µg/mL (≈ 0.821 µM). For the same compound, the MIC90 (C. koseri; Citrobacter koseri) was 0.4 µg/mL (≈ 0.821 µM), the “MIC Range” value (C. freundii) was 0.2 to 0.4 mg/L and the MIC50 (C. freundii; Citrobacter freundii) was 0.2 µg/mL (≈ 0.41 µM). The MIC90 (C. freundii; Citrobacter freundii) was 0.4 µg/mL (≈ 0.821 µM), the “MIC Range” value (S. marcescens) was 0.1 to 0.4 mg/L and the MIC50 (S. marcescens; Serratia marcescens) was 0.2 µg/mL (≈ 0.41 µM). The MIC90 (S. marcescens; Serratia marcescens) was 0.2 µg/mL (≈ 0.41 µM), the “MIC Range” value (M. morganii) was 0.2 to 1.6 mg/L and the MIC50 (M. morganii; Morganella morganii) was 0.2 µg/mL (≈ 0.41 µM). For the same compound, the MIC90 (M. morganii; Morganella morganii) was 0.8 µg/mL (≈ 1.64 µM), the “MIC Range” value (Yersinia spp.) was 0.2 to 0.8 mg/L and the MIC50 (Yersinia spp.; Yersinia) was 0.4 µg/mL (≈ 0.821 µM). The MIC90 (Yersinia spp.; Yersinia) was 0.8 µg/mL (≈ 1.64 µM), the “MIC Range” value (Shigella spp.) was 0.025 to 0.2 mg/L and the MIC50 (Shigella spp.; Shigella) was 0.05 µg/mL (≈ 0.103 µM). For the same compound, the MIC90 (Shigella spp.; Shigella) was 0.1 µg/mL (≈ 0.205 µM), the “MIC Range” value (Salmonella spp) was 0.2 to 0.8 mg/L and the MIC50 (Salmonella spp; Salmonella) was 0.4 µg/mL (≈ 0.821 µM). For the same compound, the MIC90 (Salmonella spp; Salmonella) was 0.4 µg/mL (≈ 0.821 µM), the “MIC90” value (P. aeruginosa) was 3.2 mg/L (≈ 6.56 µM) and the “MIC Range” value (P. aeruginosa) was 0.2 to 3.2 mg/L. For the same compound, the “more active than ceftazidime-avibactam” value (P. aeruginosa) was 4- to 8 fold, the MIC50 (P. aeruginosa; Pseudomonas aeruginosa) was 1.6 µg/mL (≈ 3.28 µM) and the MIC90 (P. aeruginosa; Pseudomonas aeruginosa) was 3.2 mg/L (≈ 6.56 µM). The “MIC90” value (A. baumannii) was 3.2 mg/L (≈ 6.56 µM), the MIC50 (A. baumannii; Acinetobacter baumannii) was 0.8 µg/mL (≈ 1.64 µM) and the MIC90 (A. baumannii; Acinetobacter baumannii) was 3.2 mg/L (≈ 6.56 µM). The MIC90 (Enterobacteriaceae) was 0.2 to 0.8 µg/mL (≈ 0.41 to 1.64 µM), the “type of antibacterial effect (kill curve)” value (Y. pestis CO92) was “bacteriostatic effect” and the “survivors at day 21 postchallenge” value (Y. pestis [1]) was 15 out of 15. For the same compound, the “colonization of the lymph nodes, spleen, and blood relative to nontreated controls” value (Y. pestis [1]; iv, 40 mg/kg) was “significantly (P < 0.02) lower colonization”, the survival rate (Y. pestis [1]; iv, 40 mg/kg) was at least 80% and the “bacterial load in skin, lymph nodes, spleen, and blood of survivors” value (Y. pestis [1]; iv, 200 mg/kg) was “sterile”. For the same compound, the posttreatment relapse (Y. pestis [1]; iv, 200 mg/kg) was “only one of the 15 animals”, the half-life at 1 µM [2] was 44 min and the microsomal CLint at 1 µM [2] was 52 µL/min/mg. The “diarrhea and detectable toxicity” value (OF-1 female mice; 5 days, any of the regimens tested (including 200 mg/kg q8h)) was “did not elicit any diarrhea or detectable toxicity”, the half-life ([3]; 40 mg/kg) was 10 min and the distribution volume ([3]; mouse, single intravenous 40-mg/kg dose) was 3.8 L/kg.

For O=C(O)c1cn(C2CC2)c2cc(N3CCNCC3)c(F)cc2c1=O [ciprofloxacin], the MIC (Y. pestis [4]) is given as 0.03 µg/mL (≈ 0.0905 µM).

For C[C@H]1c2cccc(O)c2C(=O)C2=C(O)[C@]3(O)C(=O)C(C(N)=O)=C(O)[C@@H](N(C)C)[C@@H]3[C@@H](O)[C@@H]21 [doxycycline, reference compound], the “survivors at day 21 postchallenge” value (Y. pestis [1]) is given as 14 out of 15, the “bacterial load in skin, lymph nodes, spleen, and blood of survivors” value (Y. pestis [1]; iv, 50 mg/kg) is given as “sterile” and the MIC (Y. pestis [4]) is given as 0.5 µg/mL (≈ 1.13 µM).
